“And” between values parts separate entries of the source, which are not always exact repeats. Identical values can stand only once. Like-named read-outs stand apart in the source and are kept apart here.
Columns and labels:
HepG2 = test: Modified MTT cytotoxicity assay, HepG2; assay type: cell-based, Human; settings: for SI (selectivity index) HepG2: quotient of IC50 for normal (LO2) and malignant (HepG2) cells; for SI value, average: average of SI for HepG2 and SMMC-7721
Method: (§1) The HepG2, SMMC-7721, and LO2 cell lines were maintained at 37 °C, 5% humidified CO2, and 95% atmosphere. Dulbecco's Modified Eagle (DMEM) medium containing 10% foetal bovine serum (FBS) was used for culturing the HepG2 cell line; meanwhile, Roswell Park Memorial Institute (RPMI) 1640 medium containing 10% FBS was used for culturing other cell lines (SMMC-7721, LO2). The HepG2, SMMC-7721 and LO2 cells were seeded in a 96-well plate in 200 μL of medium per well at a density of approximately 8 × 10^3 cells/well and cultured for 24 h, followed by incubation in an incubator of indicated compounds with successive concentrations (10, 5, 2.5, 1.25, 0.625, 0.3125 μg/mL) for 24 h. In the control group, cells were only cultured with culture media. After the media were removed, 20 μL of MTT (5 mg/mL) was added, then cells were incubated for 4 h at 37 °C. […] GraphPad Prism 5 software was used to calculate their IC50 values. Every IC50 value was the average of three replicates. Doxorubicin (DOX) and curcumin were used as positive controls.

SMMC-7721 = test: Modified MTT cytotoxicity assay, SMMC-7721; assay type: cell-based, Human; settings: for IC50: MTT, 24 h incubation, three replicates; for SI (selectivity index) SMMC-7721: quotient of IC50 for normal (LO2) and malignant (SMMC-7721) cells
Method: as §1

LO2 = test: Modified MTT cytotoxicity assay, normal heptical cell line LO2; assay type: cell-based, human; settings: 24 h incubation
Method: as §1

RAW264.7 cell = test: MTT toxicity pre-experiment on RAW264.7 macrophagocyte; assay type: cell-based, mouse; settings: BAPs 5 μM
Method: Lipopolysaccharide (LPS) is a key constituent of Gram-negative bacterial endotoxin, which is used to induce an inflammatory response in corresponding inflammatory cells. TNF-α and IL-6 are two kinds of representative pro-inflammatory factors, which produced by LPS-stimulated RAW264.7 macrophage. In our pre-experiments, the toxicity against RAW264.7 macrophagocyte for all title compounds was tested by the MTT assay, and the results were listed in Table 2. The survival rates were above 80% for all BAPs (4-30) at the concentration of 5.0 μM.

TNF-α = test: ELISA of TNF-α release in LPS-stimulated RAW264.7 cells; assay type: cell-based, mouse; settings: for Inhibition rate TNF-α: BAPs (5 μM) + LPS (1 μg/mL), RAW264.7, ELISA; for Inhibition rates against IL-6 and TNF-α cytokine release, average: average of TNF-α and IL-6, 5 μM + LPS, RAW264.7
Method: (§2) We tested by inhibiting the secretion of TNF-α and IL-6 to better evaluated the anti-inflammatory effects of BAPs. […] Under the stimulation of LPS (1.0 μg/mL) with RAW264.7 cells, the release of TNF-α and IL-6 was detected. Besides, after treated with BAPs (5.0 μM) and LPS (1.0 μg/mL), the release of TNF-α and IL-6 was measured with an ELISA kit (eBioScience, San Diego, California), respectively. In general terms, pyrrolidine dithiocarbamate (PDTC, 30 μM) or BAP (5.0 μM) was used to pretreat cells for 2 h, respectively. Then, LPS (1.0 μg/mL) was added and cells were incubated for another 22 h. Finally, the culture media were centrifuged at 1000 rpm for 10 min, and the expression levels of TNF-α and IL-6 were determined by ELISA.

IL-6 = test: ELISA of IL-6 release in LPS-stimulated RAW264.7 cells; assay type: cell-based, mouse; settings: BAPs (5 μM) + LPS (1 μg/mL), RAW264.7, ELISA
Method: as §2

A549 = test: Modified MTT cytotoxicity assay, A549; settings: for SI (selectivity index) A549: quotient of IC50 for normal (HHL-5) and malignant (A549) cells; for IC50: read-out: Cytotoxicity IC50 A549, MTT, non-small cell lung cancer cell line
A2780 = test: Modified MTT cytotoxicity assay, A2780; settings: for SI (selectivity index) A2780: quotient of IC50 for normal (HHL-5) and malignant (A2780) cells; for IC50: read-out: Cytotoxicity IC50 A2780, MTT, ovarian cancer cell line
Method: (§3) To further verify the anti-tumour activity, one human non-small cell lung cancer cell line (A549), one human ovarian cancer cell line (A2780), and one human normal heptical cell line (HHL-5) were screened by BAPs (4–30) using a modified MTT assay (Supporting Information). DOX and curcumin were selected as positive controls.
(§4) The optical density (OD) value of each well was measured on a
(§5) multi-well plate reader (TECAN, Mӓnnedorf, Switzerland ) at 570 nm.
(§6) Every IC 50 value was the average of three replicates.
(§7) Doxorubicin (DOX) and Curcumin were used as positive controls.

HHL-5 = test: Modified MTT cytotoxicity assay, normal heptical cell line HHL-5; settings: read-out: Cytotoxicity IC50 HHL-5; MTT, normal heptical cell line
Method: as §3, §4, §5, §6, §7

[1] = MTT, 24 h incubation, three replicates, read-out: Cytotoxicity IC50 HepG2
[2] = average of HepG2 and SMMC-7721, read-out: Cytotoxicity against HCC cells, average

| Compound | IC50 (HepG2; [1]) | SI (selectivity index) HepG2 (HepG2) | IC50 (SMMC-7721) | SI (selectivity index) SMMC-7721 (SMMC-7721) | IC50 (LO2) | Survival rate RAW264.7 cell (RAW264.7 cell) | Inhibition rate TNF-α (TNF-α) | Inhibition rate IL-6 (IL-6) | SI (selectivity index) A549 (A549) | IC50 (A549) | SI (selectivity index) A2780 (A2780) | IC50 (A2780) | IC50 (HHL-5) | IC50 (HepG2; [2]) | SI value, average (HepG2) | Inhibition rates against IL-6 and TNF-α cytokine release, average (TNF-α) | further results |
| --- | --- | --- | --- | --- | --- | --- | --- | --- | --- | --- | --- | --- | --- | --- | --- | --- | --- |
| Cc1ccc(S(=O)(=O)N2C/C(=C\c3ccc(C(F)(F)F)cc3)C(=O)/C(=C/c3ccc(C(F)(F)F)cc3)C2)cc1 [BAP 23] | ~1000 nM | 13.1 | ~800 nM | 16.4 | 13100 ± 300 nM | 89.2 ± 3.0% | 78.1 ± 3.2% | 69.2 ± 6.3% | 23.3 | 150 ± 20 nM | 21.9 | 160 ± 20 nM | 3500 ± 200 nM |  |  |  | IC50 (HepG2; MTT, 24 h incubation, three replicates, listed as 23, read-out: Cytotoxicity IC50 HepG2): 1000 ± 300 nM; IC50 (SMMC-7721; listed as 23): 800 ± 200 nM |
| O=C1/C(=C/c2ccc(C(F)(F)F)cc2)CN(S(=O)(=O)c2ccc([N+](=O)[O-])cc2)C/C1=C\c1ccc(C(F)(F)F)cc1 [BAP 24] | 1200 ± 300 nM | 12.0 | 3200 ± 300 nM | 4.5 | 14400 ± 100 nM | 89.0 ± 1.6% | 65.0 ± 1.8% | 57.3 ± 2.1% | 44.1 | 170 ± 10 nM | 44.1 | 170 ± 20 nM | 7500 ± 600 nM |  |  |  |  |
| O=C1/C(=C/c2ccc(C(F)(F)F)cc2)CN(S(=O)(=O)c2ccc(C(F)(F)F)cc2)C/C1=C\c1ccc(C(F)(F)F)cc1 [BAP 25] | 900 ± 200 nM | 20.3 | 1300 ± 300 nM | 14.1 | 18300 ± 600 nM | 87.3% and 87.3 ± 4.2% |  |  | 41.1 | 270 ± 30 nM | 39.6 | 280 ± 30 nM | 11100 ± 200 nM | 1100 nM | 17.2 | 78.6% |  |
| N#Cc1ccc(S(=O)(=O)N2C/C(=C\c3ccc(C(F)(F)F)cc3)C(=O)/C(=C/c3ccc(C(F)(F)F)cc3)C2)cc1 [BAP 29] | 1700 ± 100 nM |  | 1300 ± 300 nM | 16.5 | 21500 ± 1500 nM | 83.4% and 83.4 ± 3.3% |  |  | 203.7 | ~81 nM | 91.7 | ~180 nM | 16500 ± 300 nM | 1500 nM | 14 | 73.4% | SI (selectivity), bound stated for A549 and A2780 together (A549; A549 and A2780 vs HHL-5): > 90; IC50 (A549; listed as 29): 81 ± 4 nM; IC50 (A2780; listed as 29): 180 ± 10 nM |
| CC(=O)Nc1ccc(S(=O)(=O)N2C/C(=C\c3ccc(C(F)(F)F)cc3)C(=O)/C(=C/c3ccc(C(F)(F)F)cc3)C2)cc1 [BAP 30] | 1800 ± 200 nM | 7.9 | 3100 ± 200 nM | 4.6 | 14200 ± 1100 nM | 92.0 ± 1.3% | 68.3 ± 3.1% | 70.1 ± 1.2% | 21.4 | 98 ± 10 nM | 16.2 | 130 ± 20 nM | 2100 ± 100 nM |  |  |  |  |

Reference: PMC8297402, “Trifluoromethyl-substituted 3,5-bis(arylidene)-4-piperidones as potential anti-hepatoma and anti-inflammation agents by inhibiting NF-кB activation” (Journal of Enzyme Inhibition and Medicinal Chemistry, 2021)
